Laboratory results published in patent publication US5622962A, “5α-reductase inhibitors” (priority 1995, dated 1997).

Assays:
[1] = biological target: T1, Type I 5α-Reductase from Human Scalp (Homo sapiens, UniProt P18405); test: Human Type I 5α-reductase assay (conversion of [3H]-testosterone to 5α-reduced metabolites); type: biochemical; conditions: pH 7.5, 0.3 μM; 50 nM [3H]-testosterone, pH 7.5, 25°, 180 min; compared to control reaction mixtures; read-out: percent inhibition of Type I AR
T1 construct: Scalp punch biopsies from graft recipient sites were obtained from human hair transplant procedures; from tissue; host or cells: human scalp punch biopsies (hair transplant graft recipient sites), homogenate, 100,000×g pellet
T1 sequence (P18405 1-259): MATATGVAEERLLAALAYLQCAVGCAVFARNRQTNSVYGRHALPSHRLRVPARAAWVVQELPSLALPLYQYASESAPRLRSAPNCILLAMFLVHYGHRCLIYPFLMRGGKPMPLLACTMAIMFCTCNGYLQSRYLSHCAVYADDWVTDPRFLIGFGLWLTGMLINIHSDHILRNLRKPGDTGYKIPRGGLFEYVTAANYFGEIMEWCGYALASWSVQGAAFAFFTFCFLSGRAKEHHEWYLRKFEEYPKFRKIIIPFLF

[2] = biological target: T2, Type II 5α-Reductase from Human Prostate (Homo sapiens, UniProt P31213); test: Human Type II 5α-reductase assay (conversion of [3H]-testosterone to 5α-reduced metabolites); type: biochemical; conditions: pH 5.5, 0.3 μM; sodium acetate pH 5.5, 25°, 30 min; compared to control reaction mixtures; read-out: percent inhibition of Type II AR
T2 construct: The same procedure as above was used for preparations using tissue from prostate surgery; from tissue; host or cells: human prostate tissue from surgery, homogenate, 100,000×g pellet
T2 sequence (P31213 1-254): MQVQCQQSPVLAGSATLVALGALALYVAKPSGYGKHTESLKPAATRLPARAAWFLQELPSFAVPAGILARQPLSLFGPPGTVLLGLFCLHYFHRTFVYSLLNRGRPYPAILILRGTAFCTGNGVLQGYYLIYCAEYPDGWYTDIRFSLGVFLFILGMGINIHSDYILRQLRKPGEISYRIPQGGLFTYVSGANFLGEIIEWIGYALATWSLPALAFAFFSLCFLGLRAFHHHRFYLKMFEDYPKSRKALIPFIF

inhibition at 0.3 µM [1] | inhibition at 0.3 µM [2] | SMILES
97% | 25% | CN1C(=O)CC[C@]2(C)c3ccc(-c4cc(F)cc(F)c4)cc3CC[C@@H]12 [Example 227, (+)-(4aR)-(10bR)-4-methyl-8-(3,5-difluorophenyl)-10b-methyl-1,2,3,4,4a,5,6,10b-octahydrobenzo[f]quinolin-3-one]
77% | 32% | CN1C(=O)CC[C@]2(C)c3ccc(-c4c(F)cccc4F)cc3CC[C@@H]12 [Example 228, (+)-(4aR)-(10bR)-4-methyl-8-(2,6-difluorophenyl)-10b-methyl-1,2,3,4,4a,5,6,10b-octahydrobenzo[f]quinolin-3-one]
97% | 11% | CN1C(=O)CC[C@]2(C)c3ccc(-c4cc(F)ccc4F)cc3CC[C@@H]12 [Example 229, (+)-(4aR)-(10bR)-4-methyl-8-(2,5-difluorophenyl)-10b-methyl-1,2,3,4,4a,5,6,10b-octahydrobenzo[f]quinolin-3-one]
86% | 29% | CN1C(=O)CC[C@]2(C)c3ccc(-c4c(F)cc(F)cc4F)cc3CC[C@@H]12 [Example 230, (+)-(4aR)-(10bR)-4-methyl-8-(2,4,6-trifluorophenyl)-10b-methyl-1,2,3,4,4a,5,6,10b-octahydrobenzo[f]quinolin-3-one]
80% | 21% | CN1C(=O)CC[C@]2(C)c3ccc(-c4ccc(F)cc4F)cc3CC[C@@H]12 [Example 231, (+)-(4aR)-(10bR)-4-methyl-8-(2,4-difluorophenyl)-10b-methyl-1,2,3,4,4a,5,6,10b-octahydrobenzo[f]quinolin-3-one]
94% | 27% | CN1C(=O)CC[C@]2(C)c3ccc(-c4ccc(F)c(F)c4F)cc3CC[C@@H]12 [Example 232, (+)-(4aR)-(10bR)-4-methyl-8-(2,3,4-trifluorophenyl)-10b-methyl-1,2,3,4,4a,5,6,10b-octahydrobenzo[f]quinolin-3-one]
95% | 38% | CN1C(=O)CC[C@]2(C)c3ccc(-c4ccc(SCc5ccc([N+](=O)[O-])cc5)cc4)cc3CC[C@@H]12 [Example 233, (+)-(4aR)-(10bR)-4-methyl-8-(4-[4-nitrobenzyl]thiophenyl)-10b-methyl-1,2,3,4,4a,5,6,10b-octahydrobenzo[f]quinolin-3-one]
83% | 30% | CN1C(=O)CC[C@]2(C)c3ccc(-c4ccc5c6c(cccc46)C(=O)N(CCN4CCOCC4)C5=O)cc3CC[C@@H]12 [Example 234, (+)-(4aR)-(10bR)-4-methyl-8-(2-(2-[1-morpholino]ethyl)-1H-benzo<de>isoquinolin-6-yl-1,3-(2H)dione)-10b-methyl-1,2,3,4,4a,5,6,10b-octahydrobenzo[f]quinolin-3-one]
28% | 12% | CN1C(=O)CC[C@]2(C)c3ccc(-c4ccncc4)cc3CC[C@@H]12 [Example 235, (+)-(4aR)-(10bR)-4-methyl-8-(4-pyridinyl)-10b-methyl-1,2,3,4,4a,5,6,10b-octahydrobenzo[f]quinolin-3-one]
84% | 67% | Cc1ccc(S(=O)(=O)n2ccc3cc(-c4ccc5c(c4)CC[C@H]4N(C)C(=O)CC[C@]54C)ccc32)cc1 [Example 236, (+)-(4aR)-(10bR)-4-methyl-8-(1-p-toluenesulfonylindol-5-yl)-10b-methyl-1,2,3,4,4a,5,6,10b-octahydrobenzo[f]quinolin-3-one]
33% | 13% | CC(=O)N1CCc2cc(-c3ccc4c(c3)CC[C@H]3N(C)C(=O)CC[C@]43C)cc([N+](=O)[O-])c21 [Example 237, (+)-(4aR)-(10bR)-4-methyl-8-(1-acetyl-7-nitroindolin-5-yl)-10b-methyl-1,2,3,4,4a,5,6,10b-octahydrobenzo[f]quinolin-3-one]
72% | 29% | CC(=O)N1CCc2cc(-c3ccc4c(c3)CC[C@H]3N(C)C(=O)CC[C@]43C)ccc21 [Example 238, (+)-(4aR)-(10bR)-4-methyl-8-(1-acetylindolin-5-yl)-10b-methyl-1,2,3,4,4a,5,6,10b-octahydrobenzo[f]quinolin-3-one]
42% | 27% | CN1C(=O)CC[C@]2(C)c3ccc(-c4cccc5cccnc45)cc3CC[C@@H]12 [Example 239, (+)-(4aR)-(10bR)-4-methyl-8-(8-quinolinyl)-10b-methyl-1,2,3,4,4a,5,6,10b-octahydrobenzo[f]quinolin-3-one]
55% | 17% | CN1C(=O)CC[C@]2(C)c3ccc(-c4cccc5ncccc45)cc3CC[C@@H]12 [Example 240, (+)-(4aR)-(10bR)-4-methyl-8-(5-quinolinyl)-10b-methyl-1,2,3,4,4a,5,6,10b-octahydrobenzo[f]quinolin-3-one]
65% | 33% | CN1C(=O)CC[C@]2(C)c3ccc(-c4cccc5cnccc45)cc3CC[C@@H]12 [Example 241, (+)-(4aR)-(10bR)-4-methyl-8-(5-isoquinolinyl)-10b-methyl-1,2,3,4,4a,5,6,10b-octahydrobenzo[f]quinolin-3-one]
5% | 24% | CN1C(=O)CC[C@]2(C)c3ccc(-c4ccccn4)cc3CC[C@@H]12 [Example 242, (+)-(4aR)-(10bR)-4-methyl-8-(2-pyridinyl)-10b-methyl-1,2,3,4,4a,5,6,10b-octahydrobenzo[f]quinolin-3-one]
88% | 54% | CN1C(=O)CC[C@]2(C)c3ccc(-c4cc(F)c([N+](=O)[O-])cc4F)cc3CC[C@@H]12 [Example 243, (+)-(4aR)-(10bR)-4-methyl-8-(2,5-difluoro-4-nitrophenyl)-10b-methyl-1,2,3,4,4a,5,6,10b-octahydrobenzo[f]quinolin-3-one]
51% | 32% | CN1C(=O)CC[C@]2(C)c3ccc(-c4ccc5ncccc5c4)cc3CC[C@@H]12 [Example 244, (+)-(4aR)-(10bR)-4-methyl-8-(6-quinolinyl)-10b-methyl-1,2,3,4,4a,5,6,10b-octahydrobenzo[f]quinolin-3-one]
92% | 45% | CN1C(=O)CC[C@]2(C)c3ccc(-c4ccc5c6c(cccc46)C(=O)N(C4CCN(Cc6ccccc6)CC4)C5=O)cc3CC[C@@H]12 [Example 246, (+)-(4aR)-(10bR)-4-methyl-8-[2-(4-[N-benzyl]piperidinyl)-1H-benzo<de>isoquinolin-6-yl-1,3-(2H)dione]-10b-methyl-1,2,3,4,4a,5,6,10b-octahydrobenzo[f]quinolin-3-one]
60% | 32% | CN1C(=O)CC[C@]2(C)c3ccc(-c4ccc5ccccc5n4)cc3CC[C@@H]12 [Example 247, (+)-(4aR)-(10bR)-4-methyl-8-(2-quinolinyl)-10b-methyl-1,2,3,4,4a,5,6,10b-octahydrobenzo[f]quinolin-3-one]
54% | 22% | CN1C(=O)CC[C@]2(C)c3ccc(-c4ccc5oc(=O)ccc5c4)cc3CC[C@@H]12 [Example 248, (+)-(4aR)-(10bR)-4-methyl-8-(2-oxo-1-benzopyran-6-yl)-10b-methyl-1,2,3,4,4a,5,6,10b-octahydrobenzo[f]quinolin-3-one]
69% | 24% | CN1C(=O)CC[C@]2(C)c3ccc(-c4ccc5ncsc5c4)cc3CC[C@@H]12 [Example 249, (+)-(4aR)-(10bR)-4-methyl-8-(6-benzothiazolyl)-10b-methyl-1,2,3,4,4a,5,6,10b-octahydrobenzo[f]quinolin-3-one]
69% | 36% | CN1C(=O)CC[C@]2(C)c3ccc(-c4nc5ccccc5o4)cc3CC[C@@H]12 [Example 251, (+)-(4aR)-(10bR)-4-methyl-8-(2-benzoxazolyl)-10b-methyl-1,2,3,4,4a,5,6,10b-octahydrobenzo[f]quinolin-3-one]
89% | 54% | CN1C(=O)CC[C@]2(C)c3ccc(-c4nc5ccccc5s4)cc3CC[C@@H]12 [Example 252, (+)-(4aR)-(10bR)-4-methyl-8-(2-benzothiazolyl)-10b-methyl-1,2,3,4,4a,5,6,10b-octahydrobenzo[f]quinolin-3-one]
5% | 32% | CN1C(=O)CC[C@]2(C)c3ccc(-c4cnccn4)cc3CC[C@@H]12 [Example 253, (+)-(4aR)-(10bR)-4-methyl-8-(2-pyrazinyl)-10b-methyl-1,2,3,4,4a,5,6,10b-octahydrobenzo[f]quinolin-3-one]

SMILES | inhibition at 0.3 µM [1] | inhibition at 0.3 µM [2]
CN1C(=O)CC[C@]2(C)c3ccc(-c4ccc5c(ccn5C(=O)OC(C)(C)C)c4)cc3CC[C@@H]12 [Example 250, (+)-(4aR)-(10bR)-4-methyl-8-(1-[t-butoxycarbonyl]-5-indolyl)-10b-methyl-1,2,3,4,4a,5,6,10b-octahydrobenzo[f]quinolin-3-one] | 83% | 1%
